The record followed here is PubChem BioAssay (NCI).

Test in all cases: NCI tumour cell line growth inhibition, 48 h
Assay [1] concerns ACHN renal.
Assay [2] deals with 786-0 renal.
The subject of assay [3] is DU-145 prostate.
In assay [4] the test system is HCT-15 colon.
The subject of assay [5] is SK-OV-3 ovarian.
Assay [6] concerns SNB-19 CNS.
The subject of assay [7] is HCC-2998 colon.
Assay [8] has as its system OVCAR-8 ovarian.
Assay [9] relates to MOLT-4 leukemia.
Assay [10] concerns MALME-3M melanoma.

SMILES strings stand for the structures. Several values for one entry are separate records, joined by “and”; a condition that tells them apart may be missing. Identical values can stand only once.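 In this assay, cells in 96-well plates receive the compound at five concentrations for 48 hours. Endpoints are linearly interpolated between the surrounding concentrations. At the GI50, growth is halved. At the TGI there is no net growth.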

Regarding `CCOC(=O)C1=C(C)NC2SC(=O)/C(=C\c3ccccc3O)N2C1c1ccccc1` (stereo not given), the GI50 in [1] is 28.5 µM; in assay [2], 28.6 µM; in [3] it was 30.5 µM; in assay [4], 30.5 µM; in [5], 52.8 µM; in assay [6], 31.5 µM. For the same molecule, the GI50 was 26.5 µM in assay [7] and 24.6 µM in assay [8]. Besides, the TGI in [1] is 81.4 µM; in assay [2], greater than 100 µM; in assay [3], greater than 100 µM; in assay [4] it was greater than 100 µM; in assay [5], greater than 100 µM; in assay [6] it was greater than 100 µM. For the same molecule, the TGI turned out to be 64.8 µM in assay [7] and 61.6 µM in [8].

For the molecule `Cc1cc(=O)[nH]o1`, the TGI in assay [1], in [2], in assay [4], in [5], in [6] and in assay [7] was greater than 100 µM each time. In addition, the TGI in assay [8] is greater than 100 µM.

Take `CC1(C)CCc2cc3c(cc2O1)OCC1c2cc4c(cc2OC31)OCO4` (stereo not given): the TGI in assay [9], in assay [1], in assay [2], in assay [4], in [10] and in assay [5] was greater than 100 µM throughout. Moreover, the TGI in assay [6], in assay [7] and in assay [8] was greater than 100 µM throughout.

Turning to `COC(=O)C1=C(C(=O)OC)C23CC1C1C(C(=O)OC)=C(C(=O)OC)C12C1C=CC3C2C(=O)OC(=O)C21` (stereo not given), the TGI in [9], in assay [1], in [2], in assay [4], in [10] and in assay [6] was greater than 100 µM in each case. The TGI in assay [7] and in [8] was greater than 100 µM each time.

`CC(=O)O[C@]1(C)OC(=O)[C@@H](C)N1[N+](=O)[O-]`: the TGI in assay [9], in assay [1], in assay [2], in [4], in assay [10] and in assay [5] was greater than 100 µM each time. The TGI in assay [6], in [7] and in [8] was greater than 100 µM throughout.

With `O=C1c2ccccc2C(=O)c2c(NCCNCCO)ccc(O)c21`, the TGI in [9] was determined as 7.49 µM; in assay [1], 11.2 µM; in [2], 15.9 µM; in assay [4], 13.7 µM; in [10] it was 11.7 µM; in assay [5], 13.8 µM. Also, the TGI in assay [6] is 14.2 µM; in assay [7] it was 17.8 µM; in [8] it was 13.5 µM.

Turning to `NNC(=S)N/N=C(/C(=O)Nc1cc(Cl)ccc1Cl)C1C(=O)Nc2ccccc2S1=O` (stereo not given), the TGI in assay [9], in assay [1], in assay [2], in assay [4], in assay [10] and in assay [5] was greater than 100 µM throughout. Further, the TGI in assay [6], in assay [7] and in assay [8] was greater than 100 µM in each case.

On to `CCCC[N+](CCCC)=c1ccc2nc3c(C)cc(N(CC)CC)cc3sc-2c1`, for which the GI50 is 0.0958 µM in assay [9]; 0.187 µM in assay [1]; 0.302 µM in assay [2]; 0.307 µM in assay [3]; 0.165 µM in [10]; 0.28 µM in assay [5]. In addition, in assay [8], the GI50 is 0.0703 µM. The TGI in assay [9] was found to be 3.14 µM; in [1] it was 1.06 µM; in assay [2], 1.44 µM; in assay [3], 1.47 µM; in assay [10], 0.429 µM; in assay [5], 1.05 µM. In addition, in [8], the TGI amounted to 2.16 µM.

For the molecule `CCOC(=O)C1=C(O)CSC1=Nc1ccccc1`, the TGI in [9], in assay [1], in [2], in assay [4], in assay [10] and in [5] was greater than 100 µM each time. In addition, the TGI in [6], in assay [7] and in assay [8] was greater than 100 µM each time.

In the case of `CCOc1cc2c(cc1O)/C(=N\O)C[C@@H]1[C@@H]2CC[C@]2(C)[C@@H](O)CC[C@@H]12`, the TGI in [9] was 0.977 µM; in assay [1] it was greater than 49.5 µM; in [2], greater than 100 µM; in assay [3] it was greater than 100 µM; in assay [4], greater than 36.8 µM; in [7] it was 9.51 µM and > 41.1 µM. Besides, in [8], the TGI was greater than 100 µM. Also, the GI50 was 0.024 µM in assay [1]; 0.015 µM in assay [2]; 0.0232 µM in assay [3]; 0.00629 µM in assay [6]; 1.63 µM in assay [7].

Take `Cn1nnnc1N/N=C/c1ccccc1`: the TGI in assay [9], in [1], in [2], in [3], in assay [4] and in assay [5] was greater than 10 µM in each case. The TGI in [6], in [7] and in [8] was greater than 10 µM throughout.

Take `O=c1cccccc1NCCCCCCNc1cccccc1=O`: the TGI in assay [9], in assay [1], in assay [2], in assay [4], in assay [10] and in assay [5] was greater than 100 µM each time. Also, the TGI in [6], in assay [7] and in [8] was greater than 100 µM each time.

Consider `COc1ccc2c(c1)[n+]([O-])c(-c1ccccc1)c(N)[n+]2[O-]`, for which the TGI in assay [9] is greater than 100 µM; in [1], greater than 100 µM; in assay [2] it was greater than 100 µM; in assay [4], greater than 100 µM; in assay [10], 47.2 µM; in assay [5] it was greater than 100 µM. For the same molecule, the TGI in [6], in [7] and in [8] was greater than 100 µM in each case.

With `O=C1OCCC1C(O)C1c2ccccc2-c2ccccc21` (stereo not given), the TGI in assay [9], in assay [1], in assay [2], in [10], in assay [5] and in assay [6] was greater than 100 µM in each case. This molecule also registered a TGI in [8] greater than 100 µM.

Consider `c1ccc(-c2cc(C3CO3)c3ccccc3n2)cc1` (stereo not given), for which the TGI in [9] is 49.7 µM; in assay [1], 32.8 µM; in assay [2], 29.3 µM; in assay [3] it was 34.7 µM; in assay [4], 40.7 µM; in assay [5], greater than 100 µM. The TGI in [6] worked out at 95.5 µM; in assay [7] it was 35.2 µM; in assay [8], 43.2 µM.

Consider `COc1ccc(C(=O)C(C(=O)C(=O)Nc2ccc(Cl)c(Cl)c2)c2ccc(OC)cc2)cc1` (stereo not given), for which the TGI in assay [9], in assay [1], in assay [2], in assay [4], in assay [10] and in [6] was greater than 100 µM throughout. The TGI in [7] and in assay [8] was greater than 100 µM throughout.

For `COc1cccc2c1-c1c(c3ccc([N+](=O)[O-])cc3c(=O)n1CCCCl)C2=O`, the GI50 in [9] was 2.23 µM; in assay [2] it was 6.4 µM; in assay [10], 7.06 µM; in [5] it was 21.1 µM; in assay [6], 12.4 µM; in assay [8], greater than 50 µM. The TGI was greater than 50 µM in [9]; 17.4 µM in [2]; greater than 50 µM in assay [10]; greater than 50 µM in assay [5]; greater than 50 µM in assay [6]; greater than 50 µM in assay [8].

As for `O=S(=O)(O)c1ccc(-c2nnc(-c3ccccn3)nc2-c2ccc(S(=O)(=O)O)o2)o1`, the TGI in assay [9], in assay [1], in [2], in assay [3], in assay [4] and in assay [10] was greater than 100 µM each time. Moreover, the TGI in assay [5], in [6] and in assay [8] was greater than 100 µM in each case.

`Cc1c(C(=O)C/C(=N/NC(=O)C[n+]2ccccc2)C(=O)Nc2ccccc2)[n+](=O)c2ccccc2n1O`: the TGI in assay [9], in assay [1], in [2], in assay [4], in assay [10] and in [5] was greater than 100 µM in each case. Further, the TGI in [6], in assay [7] and in assay [8] was greater than 100 µM throughout.

Take `COc1ccc(N=Nc2c(-c3ccccc3)nn(C(=O)CC(=O)Nc3cccc(Cl)c3)c2-c2ccccc2)cc1`: the TGI in assay [9], in assay [1], in assay [2], in [4], in [10] and in assay [5] was greater than 100 µM in each case. In addition, the results for the TGI in assay [6], in [7] and in [8] were greater than 100 µM, 80.4 µM and greater than 100 µM, respectively.

For `Cn1c(O)c(C(/C=C/c2ccccc2)=NCCN=C(/C=C/c2ccccc2)c2c(O)n(C)c(=O)n(C)c2=O)c(=O)n(C)c1=O`, the GI50 in assay [9] was 15.8 µM; in [1], 21.2 µM; in [2] it was 21.3 µM; in assay [3] it was 13.3 µM; in [4], 14.5 µM; in [10], 30.9 µM. Besides, the GI50 was 19.9 µM in assay [5], 21.6 µM in assay [6] and 16.6 µM in assay [8]. Besides, the TGI in [9], in assay [1], in [2], in assay [3], in assay [4] and in assay [10] was greater than 50 µM in each case. In addition, the TGI in [5], in assay [6] and in [8] was greater than 50 µM in each case.

With `Cc1ccc(C)c(NC(=O)NCc2ccc(Cl)cc2)c1`, the TGI in [9] is greater than 36.2 µM; in assay [1], greater than 90.7 µM; in assay [2] it was greater than 90.3 µM; in assay [3], greater than 100 µM; in assay [4] it was greater than 100 µM; in assay [10] it was greater than 87.9 µM. Besides, the values for the TGI in assay [5], in assay [6] and in [8] were 52.7 µM, greater than 58.5 µM and greater than 100 µM, respectively.

As for `CC(C)(C)CC(C)(C)c1cc2c(O)c(c1)Cc1cc(C(C)(C)CC(C)(C)C)cc(c1O)Cc1cc(C(C)(C)CC(C)(C)C)cc(c1O)Cc1cc(C(C)(C)CC(C)(C)C)cc(c1O)Cc1cc(C(C)(C)CC(C)(C)C)cc(c1O)Cc1cc(C(C)(C)CC(C)(C)C)cc(c1O)C2`, the TGI in [9], in [1], in [2], in assay [4], in assay [10] and in assay [6] was greater than 100 µM in each case. Moreover, the TGI in [7] and in assay [8] was greater than 100 µM throughout.

In the case of `C[C@]12CCc3nonc3C1CC[C@@H]1C2CC[C@]2(C)NC(=O)CCC12` (stereo not given in full), the TGI in [9], in assay [1], in assay [2], in [4], in assay [10] and in assay [5] was greater than 100 µM throughout. Moreover, the TGI in assay [6] and in [8] was greater than 100 µM in each case.

With `O=C1N(c2ccccc2)C(=O)C2(SC=NN2Cc2ccccc2)N1c1ccccc1` (stereo not given), the TGI in assay [9], in assay [1], in [2], in [10], in [5] and in assay [6] was greater than 100 µM throughout. For the same molecule, the TGI in [7] and in assay [8] was greater than 100 µM in each case.

On to `O=C(c1cc2ccccc2o1)N(Cc1ccccc1)c1ccccc1`, for which the TGI in assay [9] was 39.9 µM; in assay [1], greater than 100 µM; in [2], 46.7 µM; in assay [4], 41 µM; in [10] it was 59.8 µM; in assay [5] it was 91.2 µM. The TGI was greater than 100 µM in assay [6], 46.1 µM in [7] and 66.2 µM in assay [8].

Consider `CC(=O)c1cccc(NC(=O)C(=O)C(C2OC(=O)c3ccccc32)[N+](=O)[O-])c1` (stereo not given), for which the TGI in assay [9], in assay [1], in assay [2], in [4], in [10] and in [5] was greater than 100 µM in each case. In addition, the TGI in [6] and in [7] was greater than 100 µM throughout.
